Test results reported in BigSolDB 2.1.

CN1CCN(c2cc3c(cc2F)c(=O)c(C(=O)O)cn3-c2ccc(F)cc2)CC1
solubility (mole fraction)
Conditions	293.15 K	295.15 K	298.15 K	300.15 K	303.15 K	305.15 K	308.15 K	310.15 K	313.15 K
in acetone	0.0052	0.0058	0.0067	0.0073	0.0081	0.0087	0.0096	0.0104	0.011
in ethanol	0.0387	0.0435	0.0507	0.0559	0.0636	0.0683	0.0754	0.0795	0.0856
in methanol	0.0064	0.0068	0.0073	0.0077	0.0084	0.0088	0.0095	0.0099	0.0104
